Measured values taken from patent US10597388B2, “Pyridazinone herbicides” (FMC CORPORATION, priority 2014, dated 2020).

What was measured:
Assay in all cases: Test E greenhouse herbicide test, pre- and postemergence
Format in all cases: in vivo
[1] = test system: waterhemp (common waterhemp, Amaranthus rudis)
From the text: (§1) Seeds of plant species selected from corn (Zea mays), soybean (Glycine max), velvetleaf (Abutilon theophrasti), lambsquarters (Chenopodium album), wild poinsettia (Euphorbia heterophylla), pigweed, palmer (palmer pigweed, Amaranthus palmeri), waterhemp (common waterhemp, Amaranthus rudis), surinam grass (Brachiaria decumbens), crabgrass, large (large crabgrass, Digitaria sanguinalis), crabgrass, Brazilian (Brazilian crabgrass, Digitaria horizontalis), panicum, fall (fall panicum, Panicum dichotomiflorum), foxtail, giant (giant foxtail, Setaria faberii), foxtail, green (green foxtail, Setaria viridis), goosegrass (Eleusine indica), johnsongrass (Sorghum halepense), ragweed (common ragweed, Ambrosia elatior), barnyardgrass (Echinochloa crus-galli), sandbur (southem sandbur, Cenchrus echinatus), arrowleaf sida (Sida rhombifolia), Italian ryegrass (Lolium multiflorum), dayflower (Virginia (VA) dayflower, Commelina virginica), field bindweed (Convolvulus arvensis), momingglory (Ipomoea coccinea), nightshade (eastern black nightshade, Solanum ptycanthum), kochia (Kochia scoparia), nutsedge, yellow (yellow nutsedge, Cyperus esculentus), horseweed (Conyza canadensis), and beggarticks (hairy beggarticks, Bidens pilosa), were planted into a silt loam soil and treated preemergence with test chemicals formulated in a non-phytotoxic solvent mixture which included a surfactant.
(§2) At the same time, plants from these crop and weed species and also waterhemp_RES1, (ALS & Triazine resistant common waterhemp, Amaranthus rudis), and waterhemp_RES2, (ALS & HPPD resistant common waterhemp, Amaranthus rudis) were planted in pots containing Redi-Earth® planting medium (Scotts Company, 14111 Scottslawn Road, Marysville, Ohio 43041) comprising spaghnum peat moss, vermiculite, wetting agent and starter nutrients were treated with postemergence applications of test chemicals formulated in the same manner. Plants ranged in height from 2 to 18 cm for postemergence treatments (1- to 4-leaf stage). Treated plants and controls were maintained in a greenhouse for 14 to 21 d, after which time all species were compared to controls and visually evaluated. Plant response ratings, summarized in Table E, are based on a scale of 0 to 100 where 0 is no effect and 100 is complete control. A dash (-) response means no test result.

corn (Zea mays) = test system: corn (Zea mays)
From the text: as §1, §2

[2] = test system: velvetleaf (Abutilon theophrasti); conditions: Preemergence
From the text: as §1, §2

[3] = test system: johnsongrass (Sorghum halepense); conditions: Preemergence
From the text: as §1, §2

[4] = test system: foxtail, giant (giant foxtail, Setaria faberii); conditions: Preemergence
From the text: as §1, §2

[5] = test system: ragweed (common ragweed, Ambrosia elatior)
From the text: as §1, §2

[6] = test system: momingglory (Ipomoea coccinea); conditions: Preemergence
From the text: as §1, §2

[7] = test system: crabgrass, large (large crabgrass, Digitaria sanguinalis); conditions: Preemergence
From the text: as §1, §2

[8] = test system: pigweed, palmer (palmer pigweed, Amaranthus palmeri)
From the text: as §1, §2

[9] = test system: field bindweed (Convolvulus arvensis)
From the text: as §1, §2

[10] = test system: nightshade (eastern black nightshade, Solanum ptycanthum); conditions: Preemergence
From the text: as §1, §2

[11] = test system: surinam grass (Brachiaria decumbens); conditions: Preemergence
From the text: as §1, §2

[12] = test system: dayflower (Virginia (VA) dayflower, Commelina virginica)
From the text: as §1, §2

[13] = test system: crabgrass, Brazilian (Brazilian crabgrass, Digitaria horizontalis)
From the text: as §1, §2

[14] = test system: goosegrass (Eleusine indica); conditions: Preemergence
From the text: as §1, §2

[15] = test system: arrowleaf sida (Sida rhombifolia)
From the text: as §1, §2

[16] = test system: horseweed (Conyza canadensis)
From the text: as §1, §2

[17] = 62 g ai/ha, Preemergence, scale 0 to 100 (0 no effect, 100 complete control)
[18] = 125 g ai/ha, Postemergence, scale 0 to 100 (0 no effect, 100 complete control)
[19] = 125 g ai/ha, Preemergence, scale 0 to 100 (0 no effect, 100 complete control)
[20] = 250 g ai/ha, Postemergence, scale 0 to 100 (0 no effect, 100 complete control)
[21] = Preemergence, 31 g ai/ha, scale 0 to 100, 0 no effect, 100 complete control
[22] = Preemergence, 250 g ai/ha, visual, scale 0 no effect to 100 complete control
[23] = Preemergence, 125 g ai/ha, visual, scale 0 no effect to 100 complete control
[24] = 62 g ai/ha, scale 0 to 100 (0 no effect, 100 complete control)
[25] = 125 g ai/ha, scale 0 to 100 (0 no effect, 100 complete control)
[26] = 31 g ai/ha, scale 0 to 100, 0 no effect, 100 complete control
[27] = 250 g ai/ha, visual, scale 0 no effect to 100 complete control
[28] = 125 g ai/ha, visual, scale 0 no effect to 100 complete control

CCC(=O)Oc1c(C)nn(C)c(=O)c1-c1c(C)sc2c(C)cc(C)cc12 [Compound 28]
70: Plant response rating, Waterhemp [1, 18] | Plant response rating, Velvetleaf [2, 25] | Plant response rating, Johnsongrass [3, 26] | Plant response rating, Ragweed [5, 18] | Plant response rating, Dayflower, VA [12, 18] | Plant response rating, Dayflower, VA [12, 22] | Plant response rating, Crabgrass, Brazil [13, 17] | Plant response rating, Crabgrass, Brazil [13, 21] | Plant response rating, Arrowleaf Sida [15, 22]
80: Plant response rating, Waterhemp [1, 17] | Plant response rating, Johnsongrass [3, 24] | Plant response rating, Johnsongrass [3, 28] | Plant response rating, Field Bindweed [9, 20] | Plant response rating, Nightshade [10, 26] | Plant response rating, Dayflower, VA [12, 20] | Plant response rating, Crabgrass, Brazil [13, 23] | Plant response rating, Horseweed [16, 18] | Plant response rating, Horseweed [16, 20]
50: Plant response rating, Morningglory [6, 26] | Plant response rating, Pigweed, Palmer [8, 18] | Plant response rating, Pigweed, Palmer [8, 20] | Plant response rating, Crabgrass, Brazil [13, 18] | Plant response rating, Arrowleaf Sida [15, 23]
60: Plant response rating, Field Bindweed [9, 18] | Plant response rating, Crabgrass, Brazil [13, 20] | Plant response rating, Goosegrass [14, 24] | Plant response rating, Arrowleaf Sida [15, 18] | Plant response rating, Arrowleaf Sida [15, 20]
90: Plant response rating, Johnsongrass [3, 27] | Plant response rating, Ragweed [5, 17] | Plant response rating, Morningglory [6, 24] | Plant response rating, Crabgrass, Large [7, 28] | Plant response rating, Crabgrass, Large [7, 27] | Plant response rating, Field Bindweed [9, 23] | Plant response rating, Crabgrass, Brazil [13, 22] | Plant response rating, Goosegrass [14, 27]
5: Plant response rating, Corn (corn (Zea mays); [18]) | Plant response rating, Corn (corn (Zea mays); [20]) | Plant response rating, Dayflower, VA [12, 21]
35: Plant response rating, Velvetleaf [2, 24] | Plant response rating, Crabgrass, Large [7, 24] | Plant response rating, Goosegrass [14, 26]
0: Plant response rating, Corn (corn (Zea mays); [17]) | Plant response rating, Corn (corn (Zea mays); [21]) | Plant response rating, Corn (corn (Zea mays); [23]) | Plant response rating, Corn (corn (Zea mays); [22]) | Plant response rating, Velvetleaf [2, 26] | Plant response rating, Pigweed, Palmer [8, 21] | Plant response rating, Field Bindweed [9, 17] | Plant response rating, Field Bindweed [9, 21] | Plant response rating, Arrowleaf Sida [15, 17]
98: Plant response rating, Waterhemp [1, 19] | Plant response rating, Ragweed [5, 22] | Plant response rating, Pigweed, Palmer [8, 22] | Plant response rating, Nightshade [10, 24] | Plant response rating, Nightshade [10, 25] | Plant response rating, Surinam Grass [11, 24] | Plant response rating, Surinam Grass [11, 27] | Plant response rating, Horseweed [16, 22]
75: Plant response rating, Waterhemp [1, 20] | Plant response rating, Ragweed [5, 20] | Plant response rating, Field Bindweed [9, 22] | Plant response rating, Goosegrass [14, 28]
100: Plant response rating, Waterhemp [1, 22] | Plant response rating, Velvetleaf [2, 27] | Plant response rating, Foxtail, Giant [4, 24] | Plant response rating, Foxtail, Giant [4, 28] | Plant response rating, Foxtail, Giant [4, 27] | Plant response rating, Morningglory [6, 27] | Plant response rating, Nightshade [10, 27] | Plant response rating, Surinam Grass [11, 25] | Plant response rating, Horseweed [16, 17] | Plant response rating, Horseweed [16, 21] | Plant response rating, Horseweed [16, 23]
95: Plant response rating, Ragweed [5, 19] | Plant response rating, Ragweed [5, 21] | Plant response rating, Morningglory [6, 25] | Plant response rating, Pigweed, Palmer [8, 19]
85: Plant response rating, Foxtail, Giant [4, 26] | Plant response rating, Surinam Grass [11, 26]
10: Plant response rating, Dayflower, VA [12, 17]
65: Plant response rating, Waterhemp [1, 21] | Plant response rating, Pigweed, Palmer [8, 17] | Plant response rating, Dayflower, VA [12, 23]

C#CCOC(=O)Oc1c(C)nn(C)c(=O)c1-c1c(C)sc2ccc(C)cc12 [Compound 87]
80: Plant response rating, Surinam Grass [11, 25] | Plant response rating, Crabgrass, Brazil [13, 17] | Plant response rating, Arrowleaf Sida [15, 22]
70: Plant response rating, Johnsongrass [3, 25] | Plant response rating, Foxtail, Giant [4, 25] | Plant response rating, Arrowleaf Sida [15, 19]
40: Plant response rating, Field Bindweed [9, 21]
65: Plant response rating, Johnsongrass [3, 24] | Plant response rating, Foxtail, Giant [4, 24] | Plant response rating, Crabgrass, Large [7, 25] | Plant response rating, Crabgrass, Large [7, 27] | Plant response rating, Pigweed, Palmer [8, 17]
20: Plant response rating, Corn (corn (Zea mays); [19]) | Plant response rating, Morningglory [6, 26]
15: Plant response rating, Corn (corn (Zea mays); [22]) | Plant response rating, Surinam Grass [11, 24]
75: Plant response rating, Waterhemp [1, 21] | Plant response rating, Johnsongrass [3, 27] | Plant response rating, Pigweed, Palmer [8, 19] | Plant response rating, Surinam Grass [11, 27] | Plant response rating, Goosegrass [14, 27]
35: Plant response rating, Morningglory [6, 24] | Plant response rating, Dayflower, VA [12, 22]
98: Plant response rating, Ragweed [5, 19] | Plant response rating, Ragweed [5, 21] | Plant response rating, Field Bindweed [9, 17] | Plant response rating, Nightshade [10, 25] | Plant response rating, Nightshade [10, 27]
50: Plant response rating, Morningglory [6, 25] | Plant response rating, Nightshade [10, 26]
10: Plant response rating, Surinam Grass [11, 26] | Plant response rating, Dayflower, VA [12, 19]
0: Plant response rating, Corn (corn (Zea mays); [17]) | Plant response rating, Corn (corn (Zea mays); [21]) | Plant response rating, Velvetleaf [2, 26] | Plant response rating, Crabgrass, Large [7, 24] | Plant response rating, Crabgrass, Large [7, 26] | Plant response rating, Pigweed, Palmer [8, 21] | Plant response rating, Dayflower, VA [12, 17] | Plant response rating, Dayflower, VA [12, 21] | Plant response rating, Goosegrass [14, 24] | Plant response rating, Goosegrass [14, 26] | Plant response rating, Arrowleaf Sida [15, 21]
25: Plant response rating, Foxtail, Giant [4, 26]
60: Plant response rating, Velvetleaf [2, 24] | Plant response rating, Crabgrass, Brazil [13, 21] | Plant response rating, Goosegrass [14, 25] | Plant response rating, Arrowleaf Sida [15, 17]
90: Plant response rating, Waterhemp [1, 17] | Plant response rating, Waterhemp [1, 19] | Plant response rating, Velvetleaf [2, 25] | Plant response rating, Morningglory [6, 27] | Plant response rating, Pigweed, Palmer [8, 22] | Plant response rating, Nightshade [10, 24] | Plant response rating, Crabgrass, Brazil [13, 19]
95: Plant response rating, Velvetleaf [2, 27] | Plant response rating, Foxtail, Giant [4, 27] | Plant response rating, Ragweed [5, 17] | Plant response rating, Field Bindweed [9, 19]
100: Plant response rating, Waterhemp [1, 22] | Plant response rating, Ragweed [5, 22] | Plant response rating, Field Bindweed [9, 22] | Plant response rating, Crabgrass, Brazil [13, 22]
